Source: patent US9340580B2, “Peptide with multiple epitopes” (priority 2007, dated 2016)
Several values for one entry are separate records, joined by “and”; a condition that tells them apart may be missing. Equal values may be shown once. Where a SMILES comes first, the peptide text is derived from it.

Legend:
[1] = solubility pre-screen in an aqueous, acidic milieu; type: physicochemical
[2] = precipitation in the aqueous solution of the binding assay; type: physicochemical; conditions: aqueous solution of the MHC class II binding assay, read-out: Precipitation in assay: lowest concentration at which an insoluble white precipitate is seen
Source text: This is a characteristic of promiscuous HLA-DRB1* binders.

[3] = target: T1, human MHC class II allotype HLA-DRB1*1101 (human); assay: competitive MHC class II binding assay; competitor control peptide influenza haemagglutinin 307-319;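 further: each test peptide was scored on how well it displaces the known control binder from each human MHC class II allotype studied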
T1 construct: Source and construct of the MHC protein in the assay are not described

[4] = target: T2, human MHC class II allotype HLA-DRB1*0701 (human); assay: as above
T2 construct: Source and construct of the MHC protein in the assay are not described

| Molecule | Solubility test [1] | solubility [2] | ratio of its own IC50 to that of the control peptide [3] | ratio of its own IC50 to that of the control peptide [4] |
| --- | --- | --- | --- | --- |
| CC[C@H](C)[C@H](NC(=O)[C@@H](NC(=O)[C@H](C)NC(=O)[C@@H](NC(=O)[C@H](C)NC(=O)[C@H](CO)NC(=O)[C@H](Cc1c[nH]cn1)NC(=O)[C@@H](NC(=O)[C@H](CCC(N)=O)NC(=O)[C@H](C)NC(=O)[C@H](CC(C)C)NC(=O)[C@H](C)NC(=O)[C@H](CCC(=O)O)NC(=O)[C@@H](N)CCCNC(=N)N)[C@@H](C)O)[C@@H](C)CC)C(C)C)C(=O)O [HDM09A] (H-REALAQTHSAIAVI-OH; N-terminus and C-terminus assumed) | YES | 1000 µM and 2900 µg/mL |  |  |
| CC(C)C[C@H](NC(=O)[C@H](CCC(N)=O)NC(=O)[C@H](Cc1ccccc1)NC(=O)[C@@H]1CCCN1C(=O)[C@@H](N)CCCCN)C(=O)N[C@@H](CCC(=O)O)C(=O)N[C@@H](C)C(=O)N[C@H](C(=O)N[C@@H](Cc1ccccc1)C(=O)N[C@@H](CCC(=O)O)C(=O)N[C@@H](C)C(=O)N[C@@H](CC(N)=O)C(=O)N[C@@H](CCC(N)=O)C(=O)N[C@@H](CC(N)=O)C(=O)N[C@H](C(=O)N[C@@H](CCCCN)C(=O)O)[C@@H](C)O)C(C)C [HDM21A] (H-KPFQLEAVFEANQNTK-OH; N-terminus and C-terminus assumed) | YES | 5000 µM and 9300 µg/mL |  |  |
| CC(C)C[C@H](NC(=O)[C@H](CCC(N)=O)NC(=O)[C@H](Cc1ccccc1)NC(=O)[C@@H]1CCCN1C(=O)[C@H](CCCCN)NC(=O)CNC(=O)[C@@H](N)CCCNC(=N)N)C(=O)N[C@@H](CCC(=O)O)C(=O)N[C@@H](C)C(=O)N[C@H](C(=O)N[C@@H](Cc1ccccc1)C(=O)N[C@@H](CCC(=O)O)C(=O)N[C@@H](C)C(=O)N[C@@H](CC(N)=O)C(=O)N[C@@H](CCC(N)=O)C(=O)N[C@@H](CC(N)=O)C(=O)N[C@H](C(=O)O)[C@@H](C)O)C(C)C [HDM21B] (H-RGKPFQLEAVFEANQNT-OH; N-terminus and C-terminus assumed) | YES | 1000 µM and 1980 µg/mL |  |  |
| CC(C)C[C@H](NC(=O)[C@H](CCC(N)=O)NC(=O)[C@H](Cc1ccccc1)NC(=O)[C@@H]1CCCN1C(=O)[C@@H](N)CCCCN)C(=O)N[C@@H](CCC(=O)O)C(=O)N[C@@H](C)C(=O)N[C@H](C(=O)N[C@@H](Cc1ccccc1)C(=O)N[C@@H](CCC(=O)O)C(=O)N[C@@H](C)C(=O)N[C@@H](CC(N)=O)C(=O)N[C@@H](CCC(N)=O)C(=O)N[C@@H](CC(N)=O)C(=O)N[C@H](C(=O)O)[C@@H](C)O)C(C)C [HDM21] (H-KPFQLEAVFEANQNT-OH; N-terminus and C-terminus assumed) | YES | 200 µM and 300 µg/mL |  |  |
| CC[C@H](C)[C@H](NC(=O)[C@H](C)NC(=O)[C@H](CS)NC(=O)[C@H](C)NC(=O)[C@H](CC(C)C)NC(=O)[C@@H](NC(=O)CNC(=O)[C@@H](N)CC(=O)O)C(C)C)C(=O)N[C@@H](C)C(=O)N[C@H](C(=O)N[C@@H](Cc1c[nH]cn1)C(=O)N[C@@H](C)C(=O)N[C@@H](CCCCN)C(=O)N[C@H](C(=O)N[C@@H](CCCNC(=N)N)C(=O)O)[C@@H](C)CC)[C@@H](C)O [HDM26A] (H-DGVLACAIATHAKIR-OH; N-terminus and C-terminus assumed) |  | 1000 µM and 1500 µg/mL |  |  |
| CC[C@H](C)[C@H](NC(=O)[C@H](CCC(=O)O)NC(=O)[C@@H](NC(=O)[C@H](CCCCN)NC(=O)[C@H](C)N)[C@@H](C)CC)C(=O)N[C@@H](CCCCN)C(=O)N[C@@H](C)C(=O)N[C@@H](CO)C(=O)N[C@@H](CC(C)C)C(=O)N[C@@H](CC(=O)O)C(=O)NCC(=O)N[C@@H](CC(C)C)C(=O)N[C@@H](CCC(=O)O)C(=O)O [HDM27] (H-AKIEIKASLDGLE-OH) | YES | 1000 µM and 1400 µg/mL |  |  |
| CC[C@H](C)[C@H](NC(=O)[C@H](C)NC(=O)[C@H](C)NC(=O)[C@@H](NC(=O)[C@H](C)NC(=O)[C@H](CCC(=O)O)NC(=O)[C@H](CC(=O)O)NC(=O)[C@@H](NC(=O)[C@H](C)NC(=O)[C@@H](N)CCCCN)C(C)C)C(C)C)C(=O)N[C@@H](CCC(=O)O)C(=O)N[C@@H](CCCCN)C(=O)N[C@@H](CO)C(=O)O [HDM28] (H-KAVDEAVAAIEKS-OH) | YES | 1000 µM and 1300 µg/mL |  |  |
| CSCC[C@H](NC(=O)[C@@H]1CCCN1C(=O)[C@H](CC(=O)O)NC(=O)[C@H](Cc1ccccc1)NC(=O)[C@@H](NC(=O)[C@H](CCC(=O)O)NC(=O)[C@H](CO)NC(=O)[C@@H](N)CCCCN)[C@@H](C)O)C(=O)N[C@@H](CCCCN)C(=O)N[C@H](C(=O)N1CCC[C@H]1C(=O)N[C@@H](CC(=O)O)C(=O)N[C@@H](Cc1c[nH]cn1)C(=O)N[C@@H](CO)C(=O)N[C@@H](CC(=O)O)C(=O)O)C(C)C [HDM29B] (H-KSETFDPMKVPDHSD-OH) | YES | 1000 µM and 1700 µg/mL |  |  |
| CC[C@H](C)[C@H](NC(=O)CNC(=O)[C@@H](NC(=O)[C@H](Cc1c[nH]cn1)NC(=O)[C@H](CCCNC(=N)N)NC(=O)[C@H](CCC(=O)O)NC(=O)[C@H](Cc1ccccc1)NC(=O)[C@H](CCCCN)NC(=O)[C@@H](N)CC(=O)O)[C@@H](C)CC)C(=O)N[C@H](C(=O)N[C@@H](CC(=O)O)C(=O)N[C@@H](CC(C)C)C(=O)N[C@@H](CCCCN)C(=O)O)[C@@H](C)CC [HDM30] (H-DKFERHIGIIDLK-OH; N-terminus and C-terminus assumed) | YES | 5000 µM and 7900 µg/mL |  |  |
| CC[C@H](C)[C@H](NC(=O)CNC(=O)[C@@H](NC(=O)[C@@H](N)Cc1c[nH]cn1)[C@@H](C)CC)C(=O)N[C@H](C(=O)N[C@@H](CC(=O)O)C(=O)N[C@@H](CC(C)C)C(=O)N[C@@H](CCCCN)C(=O)NCC(=O)N[C@@H](CCC(=O)O)C(=O)N[C@@H](CC(C)C)C(=O)N[C@@H](CC(=O)O)C(=O)N[C@@H](CCSC)C(=O)N[C@@H](CCCNC(=N)N)C(=O)N[C@@H](CC(N)=O)C(=O)O)[C@@H](C)CC [HDM31A] (H-HIGIIDLKGELDMRN-OH) | YES | 1000 µM and 1700 µg/mL |  |  |
| CC[C@H](C)[C@H](N)C(=O)NCC(=O)N[C@H](C(=O)N[C@H](C(=O)N[C@@H](CC(=O)O)C(=O)N[C@@H](CC(C)C)C(=O)N[C@@H](CCCCN)C(=O)NCC(=O)N[C@@H](CCC(=O)O)C(=O)N[C@@H](CC(C)C)C(=O)N[C@@H](CC(=O)O)C(=O)N[C@@H](CCSC)C(=O)N[C@@H](CCCNC(=N)N)C(=O)N[C@@H](CC(N)=O)C(=O)O)[C@@H](C)CC)[C@@H](C)CC [HDM31] (H-IGIIDLKGELDMRN-OH) |  | 1000 µM and 1800 µg/mL |  |  |
| CC[C@H](C)[C@H](N)C(=O)N[C@@H](CC(=O)O)C(=O)N[C@@H](CC(C)C)C(=O)N[C@@H](CCCCN)C(=O)NCC(=O)N[C@@H](CCC(=O)O)C(=O)N[C@@H](CC(C)C)C(=O)N[C@@H](CC(=O)O)C(=O)N[C@@H](CCSC)C(=O)N[C@@H](CCCNC(=N)N)C(=O)N[C@@H](CC(N)=O)C(=O)N[C@H](C(=O)N[C@@H](CCC(N)=O)C(=O)N[C@H](C(=O)N[C@@H](CCCNC(=N)N)C(=O)O)C(C)C)[C@@H](C)CC [HDM32A] (H-IDLKGELDMRNIQVR-OH) | YES | 5000 µM and 9000 µg/mL |  |  |
| CC[C@H](C)[C@H](N)C(=O)N[C@@H](CC(=O)O)C(=O)N[C@@H](CC(C)C)C(=O)N[C@@H](CCCCN)C(=O)NCC(=O)N[C@@H](CCC(=O)O)C(=O)N[C@@H](CC(C)C)C(=O)N[C@@H](CC(=O)O)C(=O)N[C@@H](CCSC)C(=O)N[C@@H](CCCNC(=N)N)C(=O)N[C@@H](CC(N)=O)C(=O)N[C@H](C(=O)N[C@@H](CCC(N)=O)C(=O)O)[C@@H](C)CC [HDM32] (H-IDLKGELDMRNIQ-OH; N-terminus and C-terminus assumed) | YES | 5000 µM and 7700 µg/mL |  |  |
| CC(C)[C@H](NC(=O)CNC(=O)[C@H](CC(=O)O)NC(=O)[C@H](CCC(=O)O)NC(=O)[C@H](CO)NC(=O)[C@H](CCCCN)NC(=O)[C@@H](NC(=O)[C@H](CC(N)=O)NC(=O)[C@H](C)N)C(C)C)C(=O)N[C@H](C(=O)N[C@@H](CCCCN)C(=O)N[C@@H](C)C(=O)N[C@@H](Cc1c[nH]cn1)C(=O)O)C(C)C [HDM37] (H-ANVKSEDGVVKAH-OH) | YES |  |  |  |
| CSCC[C@H](NC(=O)[C@H](CO)NC(=O)[C@@H](NC(=O)[C@@H](NC(=O)[C@H](CC(=O)O)NC(=O)[C@@H](N)CC(=O)O)C(C)C)C(C)C)C(=O)N[C@@H](CCC(=O)O)C(=O)N[C@@H](Cc1ccc(O)cc1)C(=O)N[C@@H](CC(=O)O)C(=O)N[C@@H](CC(C)C)C(=O)N[C@@H](C)C(=O)N[C@@H](Cc1ccc(O)cc1)C(=O)N[C@@H](CCCCN)C(=O)O [HDM39] (H-DDVVSMEYDLAYK-OH; N-terminus and C-terminus assumed) | NO* |  |  |  |
| CC[C@H](C)[C@H](NC(=O)[C@H](C)NC(=O)[C@@H](N)[C@@H](C)O)C(=O)N[C@@H](Cc1ccccc1)C(=O)N[C@@H](CCC(N)=O)C(=O)N[C@@H](CC(=O)O)C(=O)N[C@H](C(=O)N[C@H](C(=O)N[C@@H](CCCNC(=N)N)C(=O)N[C@@H](C)C(=O)N[C@@H](CCC(=O)O)C(=O)N[C@@H](CCSC)C(=O)N[C@H](C(=O)N[C@@H](CCCCN)C(=O)O)[C@@H](C)O)C(C)C)[C@@H](C)O [HDM48] (H-TAIFQDTVRAEMTK-OH; N-terminus and C-terminus assumed) | YES | 1000 µM and 1600 µg/mL |  |  |
| CSCC[C@H](NC(=O)[C@H](CCC(=O)O)NC(=O)[C@H](C)NC(=O)[C@H](CCCNC(=N)N)NC(=O)[C@@H](NC(=O)[C@@H](NC(=O)[C@@H](N)CC(=O)O)[C@@H](C)O)C(C)C)C(=O)N[C@H](C(=O)N[C@@H](CCCCN)C(=O)N[C@H](C(=O)N[C@@H](CC(C)C)C(=O)N[C@@H](C)C(=O)N1CCC[C@H]1C(=O)O)C(C)C)[C@@H](C)O [HDM49] (H-DTVRAEMTKVLAP-OH; N-terminus and C-terminus assumed) | YES |  |  |  |
| RGLKQMKRVGDAN (Synthetic peptide, 84.0% purity) [HDM35] |  |  | 1.26 |  |
| DKFERHIGIIDLK (Synthetic peptide, 81.4% purity) [HDM30] |  |  |  | 6.2 |
